Measured values reported in patent publication US9181273B2, “Morpholine-spirocyclic piperidine amides as modulators of ion channels” (Vertex Pharmaceuticals Incorporated, priority 2011, dated 2015).

Biological target: human NaV subtype, like NaV 1.7 (Homo sapiens, UniProt Q15858)
Test: E-VIPR optical membrane potential assay with electrical stimulation
Format: cell-based
Conditions: active against one or more sodium channels; assay and NaV subtype not specified for Table 3; read-out: IC50 Binned Activity Data

human NaV subtype, like NaV 1.7, sequence (Q15858 whole entry): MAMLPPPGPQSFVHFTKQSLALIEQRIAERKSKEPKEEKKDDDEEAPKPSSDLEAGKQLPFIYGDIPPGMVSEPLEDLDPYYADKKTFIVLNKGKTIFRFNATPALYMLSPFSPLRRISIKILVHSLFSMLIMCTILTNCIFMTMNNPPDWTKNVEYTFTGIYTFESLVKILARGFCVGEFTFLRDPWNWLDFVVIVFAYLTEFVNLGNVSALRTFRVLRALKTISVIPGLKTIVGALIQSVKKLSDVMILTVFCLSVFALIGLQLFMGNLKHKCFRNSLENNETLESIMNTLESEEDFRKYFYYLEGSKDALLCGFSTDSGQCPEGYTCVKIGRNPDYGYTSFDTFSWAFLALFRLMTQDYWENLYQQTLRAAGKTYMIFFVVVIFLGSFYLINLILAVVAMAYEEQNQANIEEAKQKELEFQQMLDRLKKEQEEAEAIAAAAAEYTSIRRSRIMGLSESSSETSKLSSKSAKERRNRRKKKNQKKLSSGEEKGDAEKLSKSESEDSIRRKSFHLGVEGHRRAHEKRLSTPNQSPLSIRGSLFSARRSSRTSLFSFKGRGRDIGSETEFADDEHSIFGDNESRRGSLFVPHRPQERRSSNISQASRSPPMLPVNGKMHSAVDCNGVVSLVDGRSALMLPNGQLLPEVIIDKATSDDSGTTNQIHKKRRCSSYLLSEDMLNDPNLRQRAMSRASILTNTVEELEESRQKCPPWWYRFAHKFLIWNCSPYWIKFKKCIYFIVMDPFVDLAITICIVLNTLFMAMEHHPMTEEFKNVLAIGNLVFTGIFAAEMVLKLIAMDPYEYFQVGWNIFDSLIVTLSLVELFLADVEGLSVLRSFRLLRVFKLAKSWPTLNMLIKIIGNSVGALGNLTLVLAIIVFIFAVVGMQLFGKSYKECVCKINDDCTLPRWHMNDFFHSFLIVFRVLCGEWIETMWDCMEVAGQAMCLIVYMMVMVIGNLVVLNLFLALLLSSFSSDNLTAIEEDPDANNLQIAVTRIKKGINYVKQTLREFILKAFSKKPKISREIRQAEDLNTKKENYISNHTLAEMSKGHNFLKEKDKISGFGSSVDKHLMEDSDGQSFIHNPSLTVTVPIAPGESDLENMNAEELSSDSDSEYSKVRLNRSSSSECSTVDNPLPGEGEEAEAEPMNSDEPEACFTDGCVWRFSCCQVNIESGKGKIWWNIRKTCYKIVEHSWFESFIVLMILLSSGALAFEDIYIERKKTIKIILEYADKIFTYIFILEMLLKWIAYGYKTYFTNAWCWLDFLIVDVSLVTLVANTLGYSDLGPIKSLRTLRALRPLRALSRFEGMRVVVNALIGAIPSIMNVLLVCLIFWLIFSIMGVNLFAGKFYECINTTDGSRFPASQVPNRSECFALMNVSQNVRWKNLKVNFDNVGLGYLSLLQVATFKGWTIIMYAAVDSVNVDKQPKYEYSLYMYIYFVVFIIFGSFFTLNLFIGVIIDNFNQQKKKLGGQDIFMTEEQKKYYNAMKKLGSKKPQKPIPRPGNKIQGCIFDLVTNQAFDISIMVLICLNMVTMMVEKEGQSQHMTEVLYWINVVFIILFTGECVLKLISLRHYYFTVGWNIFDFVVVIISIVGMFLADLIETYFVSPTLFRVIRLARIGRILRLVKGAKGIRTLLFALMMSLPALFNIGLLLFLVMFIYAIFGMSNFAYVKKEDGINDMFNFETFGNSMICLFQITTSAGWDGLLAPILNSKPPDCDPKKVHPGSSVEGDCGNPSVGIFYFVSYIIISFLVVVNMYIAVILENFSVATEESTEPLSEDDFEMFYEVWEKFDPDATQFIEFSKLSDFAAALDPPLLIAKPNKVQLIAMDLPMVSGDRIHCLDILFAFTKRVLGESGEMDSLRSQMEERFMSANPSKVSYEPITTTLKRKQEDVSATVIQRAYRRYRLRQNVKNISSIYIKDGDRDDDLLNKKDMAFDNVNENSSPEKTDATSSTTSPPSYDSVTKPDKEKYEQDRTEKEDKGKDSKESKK

Compound | IC50 [nM]
CCCOCCN1CC(COC)OC2(CCN(C(=O)c3ccc(OC(C)C)c(C)c3)CC2)C1 (centres unmarked) [Compound 107] | < 2000
COCC1CN(c2cccc(C)n2)CC2(CCN(C(=O)c3ccc(OC(C)C)c(C)c3)CC2)O1 (centres unmarked) [Compound 16] | < 2000
CCN1CC(COC)OC2(CCN(C(=O)c3ccc(OC(C)C)c(C)c3)CC2)C1 (centres unmarked) [Compound 254] | 2000 to 5000
COc1cc(F)cc(C(=O)N2CCC3(CC2)CN(CC(F)(F)F)CC(c2ccccc2)O3)c1 (centres unmarked) [Compound 71] | > 5000
COCC#Cc1ccc(C(=O)N2CCC3(CC2)CN(CC(F)(F)F)CC(c2ccccc2)O3)cc1F (centres unmarked) [Compound 56] | 2000 to 5000
CC(C)Oc1ccc(C(=O)N2CCC3(CC2)CN(CC(F)(F)F)CC(c2cc[nH]n2)O3)cc1F (centres unmarked) [Compound 38] | 2000 to 5000
O=C(c1ccc(S(=O)(=O)NC2CC2)cc1)N1CCC2(CC1)CN(CC(F)(F)F)CC(c1ccccc1)O2 (centres unmarked) [Compound 99] | < 2000
CC(C)Oc1ccc(C(=O)N2CCC3(CC2)CN(CC(F)F)CC(c2ccccn2)O3)cc1F (centres unmarked) [Compound 221] | < 2000
